Tested on: G6PI peptide induced arthritis in DBA/1 mice
Test: G6PI peptide induced arthritis, MCTR3 treatment
Format: in vivo, mouse
Method: (A-D) K/B×N serum (100 μL via intraperitoneal injection, i.p.) was administered to C57BL/6 mice on days 0, 2 and 8 to initiate and prolong inflammatory arthritis. Mice were treated 1 μg/mouse MCTR3 or vehicle (PBS+0.1% EtOH) on day 10, 12 and 14 via intravenous (i.v.) injection. Disease course was assessed by evaluating A) clinical scores and B) paw oedema daily. Results are mean±SEM, n=9 mice per group. Statistical differences were evaluated using a Two-Way ANOVA. Arrows denote days when MCTR3 was administered. (C,D) paws were harvested on day 25, and cells liberated from the joints and the expression of phenotypic markers was evaluated on joint macrophages using flow cytometry and PLS-DA. (C) scores plot with highlighted regions denoting the clusters representing cells from each group and (D) VIP scores for each of the markers evaluated. Each dot in the score plot represents a separate mouse. (E-H) Arthritis was induced in DBA/1 mice by administration of 10 μg G6PI in CFA on Day 0. On day 24, 26 and 28 (denoted in blue arrows), mice were administered 1 μg/mouse MCTR3 or vehicle (PBS+0.1% EtOH) i.v. and (E) clinical scores and (F) paw oedema were measured. Results are mean±SEM, n=mice 7 per group from 2 separate experiments. Statistical differences were evaluated using a Two-Way ANOVA. (G-H) paws were harvested on day 36, and cells liberated from the joints and the expression of phenotypic markers was evaluated on joint macrophages using flow cytometry and PLS-DA. (G) scores plot with highlighted regions denoting the clusters representing cells from each group and (H) VIP scores for each of the markers evaluated. Each dot in the score plot represents a separate mouse.
FIG. 10: MCTR3 promotes bone and cartilage repair in arthritic mice. G6PI peptide (10 μg/mouse) in CFA was administered to DBA/1 mice ([…]) and mice were treated with either vehicle (PBS+0.1% EtOH) or 1 μg/mouse MCTR3 i.v. on day 24, 26 and 28. On day 36, hind paws were harvested for histological analysis. A) Representative images from knee joints from a vehicle and MCTR3 treated mouse stained with Safranin-O and B) quantitative analysis of Safranin O staining. Results are mean±SEM n=5 mice per group. C-D) microCT analysis was performed in vivo on day 24 and 35, to evaluate bone erosion in the arthritic knees. […] Results are mean±SEM and expressed as percent change from values obtained on day 24 for each mouse. n=4 mice per group. Statistical differences were evaluated using a Mann-Whitney U test.
We next assessed whether the protective activities of MCTR3 were retained in a model of adaptive immune system driven arthritis, using the glucose-6-phosphate isomerase peptide driven model of inflammatory arthritis (Schubert et al., 2004, J Immunol 172, 4503-4509). Here, administration of MCTR3 during the course of arthritic inflammation also led to a reduction in joint inflammation as measured by a reduction in both clinical scores and joint oedema (FIG. 1E,F). […] This shift in phenotype was linked with an upregulation of three phenotypic markers, including Arg-1 and CD11b, in cells obtained from joints of MCTR3 treated mice (FIG. 1H).
Since one of the main debilitating features of arthritis is bone erosion, we next determined whether the joint protective actions of MCTR3 also extended to the bone. For this purpose, we used microCT analysis to investigate bone volume in arthritic joints, comparing bone volumes on day 24, prior to MCTR3 treatment, to those at day 35. […] We next queried whether these bone protective activities of
G6PI peptide induced arthritis: Antigen DBA/1 mice were immunised with a G6PI emulsion (120 μL/mouse), prepared by sonication of 10 μg G6PI peptide (Sequence: IWYINCFGCETHAML; Cambridge Peptides Ltd.) in 50 μL complete Freund's adjuvant (CFA) and 50 μL DPBS^−/− per mouse (Schubert et al., 2004, J Immunol 172, 4503-4509), via intradermal injection at the base of the tail to initiate inflammatory arthritis. […]

[1] = 1 μg/mouse i.v. on day 24, 26 and 28
[2] = 1 μg/mouse i.v., day 36, flow cytometry

Compound: CC/C=C\C/C=C\C[C@H](O)[C@@H](/C=C/C=C/C=C\C/C=C\CCC(=O)O)SC[C@H](N)C(=O)O [MCTR3, 13R-cysteinyl, 14S-hydroxy-4Z, 7Z, 9E, 11E, 13R, 14S, 16Z, 19Z-docosahexaenoic acid]
- clinical scores [1]: reduction
- joint oedema [1]: reduction
- safranin O-staining in joints (glycosaminoglycan content) (1 μg/mouse i.v. on day 24, 26 and 28, day 36): significantly higher
- bone volume in arthritic knees (microCT) (1 μg/mouse i.v., day 35 compared with day 24): increased
- Arg-1 in joint macrophages [2]: upregulation
- CD11b in joint macrophages [2]: upregulation
